Data from patent publication US20080194540A1, “Use of a Tricyclic Antidepressant Drug For Promoting Endocytosis” (RINA NETZWERK RNA-TECHNOLOGIEN GMBH, priority 2003, published 2008).

test system: yeast cells (strain RPY10); assay: Yeast system transfection with pFL1 plasmid (cfu relative to negative control); assay type: cell-based, Saccharomyces cerevisiae; settings: FIG. 1a, concentration series, ordinate values standardized to chloroquine
Protocol: A first cell system is a yeast system. The transfection protocol corresponded to that of the document B. Neukamm et al., Biochimica et Biophysica Acta 1572:67-76 (2002). For the measurements, a lab robot (Zinsser, Frankfurt, Germany) was used, and a pipetting protocol was prepared.
Yeast precultures were drawn from cultures of a −70° C. glycerol stock of the strain RPY10 (R. C. Piper et al., Eur J Cell Biol 65:305-318 (1995)) for 72 hours. In the main culture, the cells were drawn over night in YPD medium up to a cell density of 5 to 8·10^7 cells/ml. 12·10^9 cells were harvested and washed twice with the same volume of distilled water. The cells were made competent for the transfection by soaking in distilled water for 30 minutes at 4° C. The competent cells were harvested and resuspended in 10 ml 34% sucrose, adjusted with HCl to pH 4. The suspension was immediately transferred into a sterilized 40 ml glass tube (Zinsser Analytik, Frankfurt, Germany), which were then sealed by an aluminum foil. The tubes were then placed on a shaker on the platform of the lab robot and treated for 40 seconds at 300 rpm. The suspension was automatically distributed into the wells of a 96-well microtiter plate (80 μl each by using stainless steel tips).
The subsequent pipetting protocol was as follows. First, solutions of a substance according to the invention or of a reference substance in different concentrations were added. Exactly 5 minutes later, 10 μl of a solution or suspension of the pFL1 plasmid (0.15 μg/μl) of example 1 were automatically added to the mixture of cells and substance. Some wells were used for a negative control, and only the used solvents and the plasmid were added to the cell suspension, not however the substance. After termination of the pipetting protocol, the plate was covered and placed on the Desyre mixer (Zinsser Analytik). After vortexing for 1 minute at 1,300 rpm, an incubation was performed at 28° C. for 18-20 hours. After the incubation, 110 μl distilled water each were slowly added. Then the cells of each well were transferred to 6-well plates (PS Macroplate, Greiner), filled up with 4 ml WMIXura (Neukamm et al., see above). The wells of the microtiter plate were each washed with 50 μl distilled water, and the washing solution was pipetted on the solid surface of the WMIXura. The macroplates were left dry and incubated for 4 days at 28° C.
Colony forming units (cfu) were then counted in every well. The obtained cfu values were related to the cfu values of the negative control. This ratio is a measure for the transfection effectivity.
For each used substance, the optimum concentration was determined by means of concentration series. For this purpose, concentration series of the respective substances were used. […]

| Compound | optimum concentration for promoting transfection, compared to chloroquine |
| --- | --- |
| CN(C)CCCN1c2ccccc2Sc2ccc(Cl)cc21 [chlorpromazine] | smaller |
| CNCCCC12CCC(c3ccccc31)c1ccccc12 [maprotyline] | smaller |
| Clc1ccc2c(c1)C(N1CCNCC1)=Nc1ccccc1O2 [amoxapine] | smaller |
| CN(C)CCC=C1c2ccccc2COc2ccccc21 [doxepine] | similarly high |

test system: HepG2 cells; assay: Mammal cells system transfection with luciferase plasmid (luciferase activity); assay type: cell-based; settings: FIG. 1b, concentration series, ordinate values standardized to chloroquine
Protocol: HepG2 cells were drawn in Dulbecco's Modified Eagle Medium (DMEM, Gibco BRL, Eggenstein, Germany), supplemented with 10% FBS (fetal bovine serum, Gibco) and 1 μg/ml insulin. On day 1, the cells were removed by means of trypsination, washed and distributed on the wells of a 24-well tissue culture dish, namely 1.5·10^7 cells per well.
24 hours later the transfection tests were performed with the luciferase plasmid from example 1 with different substances at approx. 70 to 80% confluence. The supernatant was removed, and then a mixture (250 μl) containing medium, 12.5 μl dextran (10 mg/ml), 0.5 μl of the plasmid and the respective substance was added to every well. After 2.5 hours incubation at 37° C., the supernatant was removed, and 500 μl complete medium were added to each well. On day 5, the luciferase activity was measured by using the Dual Luciferase® Reporter Assay Kit (Promega, Mannheim, Germany). For this purpose, 48 hours after the transfection, the cell culture supernatants were removed, and the cells were solubilized after addition of 100 μl 1× lysis buffer per well (Promega) for 20 minutes at 20° C. on a slow shaker. 20 μl of the cell-free supernatant were transferred into a 96-well plate (Corning and Costar, Wiesbaden, Germany) and reacted with 100 μl luciferase assay buffer. The luciferase activity was measured with a luminometer (EG&G Berthold MicrolumatPlus).
For each used substance, the optimum concentration was determined by means of concentration series. For this purpose, concentration series of the respective substances were used. For comparing, corresponding measurements were performed with chloroquine. […] The ordinate values are standardized to chloroquine.

| Compound | optimum concentration for promoting transfection, compared to chloroquine |
| --- | --- |
| CN(C)CCCN1c2ccccc2Sc2ccc(Cl)cc21 [chlorpromazine] | smaller |
| CNCCCC12CCC(c3ccccc31)c1ccccc12 [maprotyline] | smaller |
| Clc1ccc2c(c1)C(N1CCNCC1)=Nc1ccccc1O2 [amoxapine] | smaller |
| CN(C)CCC=C1c2ccccc2COc2ccccc21 [doxepine] | similarly high |
